Measurements taken from patent US20250051355A1, “COMPOUNDS, COMPOSITIONS, AND METHODS” (ACONCAGUA BIO, INC., priority 2023, published 2025).

Assays:
Format in all cases: cell-based
[1] = target: T1, human calcitonin receptor (CTR) and RAMP3 (AMY3) (Homo sapiens, UniProt O60896+P30988); test: Amylin Receptor cAMP Assay I; conditions: COS-7/AMY3 cells, cAMP Hi-range Kit, read-out: Amylin Receptor cAMP Stimulation Activity: EC50
Source text: Amylin Receptor cAMP Assay I
AMYRs are heterodimers of the class B calcitonin (CT) G-protein-coupled receptor (CTR) and receptor activity-modifying proteins (RAMPs). All three RAMPs can interact with the CTR and form AMY1, AMY2, AMY3 with RAMP1, RAMP2 and RAMP3, respectively. Like other class B1 GPCRs, the CT receptor family is canonically coupled to Gs-mediated cAMP production, and measurement of cAMP accumulation has been the primary assay used to determine peptide selectivity and potency.
To optimize functional activity directed toward Gas coupling, COS-7 cells were stably transfected with human calcitonin receptor (CTR) and RAMP3, simultaneously. 100×concentration of compound working solutions were prepared (Agilent Technologies Bravo) with 4-fold serial dilution in 384-well Echo LDV plate (Labcyte, Cat #LP-0200). 100 nL/well 100× concentration of compound working solutions were moved to 384-well white low volume plate (Greiner, Cat #784075) using Labcyte ECHO550. 1×10^5 cells/mL COS-7/CTR or COS-7/AMY3 (HD Biosciences) cell suspensions prepared with assay buffer [DPBS containing 0.5 mM IBMX (Sigma, Cat #15879) and 0.1% BSA (GENVIEW, Cat #FAO16-100 g)], 10 μL cell suspensions were added to each well of previous generated assay plate which already contains 100 nL compound at 100× concentration using ThermoFisher Multidrop Combi (1000 cells/well). Seal the plate and incubate at 37° C. with 5% CO2 for 30 min.
After incubation, the cAMP assay signal was generated using cAMP Hi-range Kit (Cisbio). 5 μL cAMP-d2 working solution was added to each well, followed by 5 μL Anti-cAMP antibody-cryptate working solution which was added to each well using ThermoFisher Multidrop Combi. The samples were then incubated at room temperature for 1 hour protected from light. the fluorescence was read at 665 and 615 nm with Reader PerkinElmer EnVision.

[2] = target: T2, human calcitonin receptor (CTR) (Homo sapiens, UniProt P30988); test: Calcitonin receptor (CTR) cAMP Assay; conditions: COS7-human CTR Clone #2 cells, cAMP dynamic 2 kit; read-out: Calcitonin Receptor cAMP Stimulation Activity: EC50
T2 construct: expressed in transfected cells; host or cells: COS-7 (COS7-human CTR Clone #2)
T2 sequence (P30988 25-474): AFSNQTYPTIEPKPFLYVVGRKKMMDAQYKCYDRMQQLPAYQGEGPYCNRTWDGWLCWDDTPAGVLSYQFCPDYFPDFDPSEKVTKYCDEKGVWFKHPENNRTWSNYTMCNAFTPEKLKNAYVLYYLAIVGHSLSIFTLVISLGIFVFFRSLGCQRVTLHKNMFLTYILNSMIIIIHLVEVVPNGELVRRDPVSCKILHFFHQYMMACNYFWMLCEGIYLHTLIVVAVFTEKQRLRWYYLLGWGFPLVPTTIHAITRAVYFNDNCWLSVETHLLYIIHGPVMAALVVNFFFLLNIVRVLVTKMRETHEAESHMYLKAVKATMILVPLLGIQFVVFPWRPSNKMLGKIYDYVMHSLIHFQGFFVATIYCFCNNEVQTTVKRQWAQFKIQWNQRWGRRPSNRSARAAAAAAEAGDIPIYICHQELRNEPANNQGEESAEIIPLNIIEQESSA
Summary of the method: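 COS-7 cells stably expressing human CTR (2000 cells/well) treated with 4-fold serially diluted compounds in HBSS/20 mM HEPES/0.5 mM IBMX/0.1% casein, 30 min at 37° C. cAMP quantified by HTRF (cAMP-d2 plus anti-cAMP cryptate, 1 h RT), fluorescence read at 665 and 615 nm.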

[3] = target: T1, human calcitonin receptor (CTR) and RAMP3 (AMY3); test: Amylin Receptor cAMP Assay II; conditions: COS-7/AMY3 cells, cAMP dynamic 2 kit, read-out: Amylin Receptor cAMP Stimulation Activity: EC50
Summary of the method: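 COS-7 cells stably co-expressing human CTR and RAMP3 (AMY3) were treated with 4-fold serially diluted compounds at 2000 cells/well in HBSS with 20 mM HEPES, 0.5 mM IBMX and 0.1% casein for 30 min at 37 °C. cAMP was measured by HTRF (cAMP-d2 plus anti-cAMP cryptate, 1 h at RT) with reads at 665/615 nm.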

T1 sequence (O60896 24-148, one chain of several): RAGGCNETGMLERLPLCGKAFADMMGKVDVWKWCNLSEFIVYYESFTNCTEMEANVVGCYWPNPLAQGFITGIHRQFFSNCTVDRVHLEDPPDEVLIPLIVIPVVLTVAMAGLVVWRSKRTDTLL

Row | EC50 [1] | EC50 [2] | EC50 [3] | Compound
1 | 48.1 nM | – | – | Cc1nnc(-c2c(CCc3ccc(F)cc3)nc3c(c2-c2ccc(C(=O)NC4CC(O)c5ccccc54)s2)C(=O)N2CCC[C@@H]32)o1 (stereo partly drawn) [Compound 11, 5-((S)-2-(4-fluorophenethyl)-3-(5-methyl-1,3,4-oxadiazol-2-yl)-5-oxo-7,8,9,9a-tetrahydro-5H-pyrido[2,3-a]pyrrolizin-4-yl)-N-(3-hydroxy-2,3-dihydro-1H-inden-1-yl)thiophene-2-carboxamide]
2 | 79 nM | – | – | Cc1nnc(-c2c(CCc3ccc(F)cc3)nc3c(c2-c2ccc(C(=O)NCc4ccc(F)c(F)c4)s2)C(=O)N2CCCC[C@@H]32)o1 [Compound 20]
3 | 512 nM | – | – | Cc1nnc(-c2c(COC3CCCCC3)nc3c(c2-c2ccc(C(=O)NCc4ccc(F)c(F)c4)s2)C(=O)N2CCC[C@@H]32)o1 [Compound 25]
4 | 174 nM | – | – | Cc1nnc(-c2c(CCC3CCC(F)(F)CC3)nc3c(c2-c2ccc(C(=O)NCc4ccc(F)c(F)c4)s2)C(=O)N2CCC[C@@H]32)o1 [Compound 27]
5 | 315 nM | – | – | Cc1nnc(-c2c(CCc3ccc(F)cc3)nc3c(c2-c2ccc(C(=O)N[C@@H]4CCc5ncccc54)s2)C(=O)N2CCC[C@@H]32)o1 [Compound 28]
6 | 12.6 nM | – | – | Cc1cnc(-c2c(CCc3ccc(F)cc3)nc3c(c2-c2ccc(C(=O)NCc4ccc(F)c(F)c4)s2)C(=O)N2CCC[C@@H]32)o1 [Compound 14, N-(3,4-difluorophenyl)methyl-5-{(2S)-11-[2-(p-fluorophenyl)ethyl]-10-(5-methyl-1,3-oxazol-2-yl)-7-oxo-6,12-diazatricyclo[6.4.0.0^2,6]dodeca-1(8),9,11-trien-9-yl)-2-thenamide]
7 | 1880 nM | – | – | Cc1nnc(-c2c(CCc3cnn(C)c3)nc3c(c2-c2ccc(C(=O)NCc4ccc(F)c(F)c4)s2)C(=O)N2CCC[C@@H]32)o1 [Compound 43, (S)—N-(3,4-difluorobenzyl)-5-(3-(5-methyl-1,3,4-oxadiazol-2-yl)-2-(2-(1-methyl-1H-pyrazol-4-yl)ethyl)-5-oxo-7,8,9,9a-tetrahydro-5H-pyrido[2,3-a]pyrrolizin-4-yl)thiophene-2-carboxamide]
8 | 3590 nM | – | – | Cc1nnc(-c2c(CCc3ccc(F)cn3)nc3c(c2-c2ccc(C(=O)NCc4ccc(F)c(F)c4)s2)C(=O)N2CCC[C@@H]32)o1 [Compound 8, (S)—N-(3,4-difluorobenzyl)-5-(2-(2-(5-fluoropyridin-2-yl)ethyl)-3-(5-methyl-1,3,4-oxadiazol-2-yl)-5-oxo-7,8,9,9a-tetrahydro-5H-pyrido[2,3-a]pyrrolizin-4-yl)thiophene-2-carboxamide]
9 | 67.5 nM | – | – | Cc1nnc(-c2c(CCc3ccccc3)nc3c(c2-c2ccc(C(=O)NCc4ccc(F)c(F)c4)s2)C(=O)N2CCC[C@@H]32)o1 [Compound 5, (S)—N-(3,4-difluorobenzyl)-5-(3-(5-methyl-1,3,4-oxadiazol-2-yl)-5-oxo-2-phenethyl-7,8,9,9a-tetrahydro-5H-pyrido[2,3-a]pyrrolizin-4-yl)thiophene-2-carboxamide]
10 | 59 nM | – | – | COc1cccc2c1CC[C@H]2Nc1nccc2cc(-c3c4c(nc(CCC5CCOCC5)c3-c3nnc(C)o3)[C@@H]3CCCN3C4=O)sc12 [Compound 83, (2S,6R)-9-(7-[(R)-4-methoxy-1-indanylamino]-1-thia-6-aza-2-indenyl}-10-(5-methyl-1,3,4-oxadiazol-2-yl)-11-[2-(tetrahydro-2H-pyran-4-yl)ethyl]-6,12-diazatricyclo[6.4.0.0^2,6,]dodeca-1(8), 9,11-trien-7-one]
11 | 1600 nM | – | – | Cc1nnc(-c2c(COC3CCOCC3)nc3c(c2-c2ccc(C(=O)NCc4ccc(F)c(F)c4)s2)C(=O)N2CCC[C@@H]32)o1 [Compound 26]
12 | 113 nM | – | – | Cc1cnc(-c2c(CCC3CCOCC3)nc3c(c2-c2ccc(C(=O)NCc4ccc(F)c(F)c4)s2)C(=O)N2CCC[C@@H]32)o1 [Compound 57]
13 | 66.7 nM | – | – | Cc1nnc(-c2c(CCc3ccc(F)cc3)nc3c(c2-c2ccc(C(=O)N[C@@H]4COc5ccccc54)s2)C(=O)N2CCC[C@@H]32)o1 [Compound 10, N—((S)-2,3-dihydrobenzofuran-3-yl)-5-((S)-2-(4-fluorophenethyl)-3-(5-methyl-1,3,4-oxadiazol-2-yl)-5-oxo-7,8,9,9a-tetrahydro-5H-pyrido[2,3-a]pyrrolizin-4-yl)thiophene-2-carboxamide]
14 | – | 1050 nM | 3100 nM | Cc1nnc(-c2c(CCC3CCOCC3)nc3c(c2-c2cn4cccc(N[C@@H]5CCc6ncccc65)c4n2)S(=O)(=O)CC3C(C)C)o1 (stereo partly drawn) [Compound 88, N—(R)-4-aza-1-indanyl(2-(3-isopropyl-6-(5-methyl-1,3,4-oxadiazol-2-yl)-1,1-dioxo-5-[2-(tetrahydro-2H-pyran-4-yl)ethyl]-1λ^6-thia-4-aza-7-indanyl}-1,3a-diaza-7-indenyl)amine]
15 | – | 5.12 nM | 73 nM | Cc1cc(-c2c(CCC3CCOCC3)nc3c(c2-c2ccc4c(c2)oc(=O)n4Cc2ccc(C#N)c(F)c2)c(=O)n2n3CCC2)ccn1 [Compound 151, 2-fluoro-4-[(6-(10-(2-methyl-4-pyridyl)-7-oxo-11-[2-(tetrahydro-2H-pyran-4-yl)ethyl]-2,6,12-triazatricyclo[6.4.0.0^2,6]dodeca-1(12),8,10-trien-9-yl}-2-oxo-1,3-benzoxazol-3-yl)methyl]benzonitrile]
16 | – | 4.06 nM | 58.4 nM | COc1ccnc(-c2c(CCC3CCOCC3)nc3c(c2-c2cc4ccnc(N[C@@H]5CCc6ncccc65)c4s2)S(=O)(=O)CC3C(C)C)n1 (stereo partly drawn) [Compound 146, N—(R)-4-aza-1-indanyl(2-(3-isopropyl-6-(4-methoxy-2-pyrimidinyl)-1,1-dioxo-5-[2-(tetrahydro-2H-pyran-4-yl)ethyl]-1λ^6-thia-4-aza-7-indanyl}-1-thia-6-aza-7-indenyl)amine]
17 | – | 0.398 nM | 9.66 nM | COc1cccc2c1CC[C@H]2Nc1nccc2cc(-c3c4c(nc(CCc5ccc(F)cc5)c3-c3nnc(N)o3)[C@@H]3CCCN3C4=O)sc12 [Compound 86, (2S)-9-(7-[(R)-4-methoxy-1-indanylamino]-1-thia-6-aza-2-indenyl}-10-(5-amino-1,3,4-oxadiazol-2-yl)-11-[2-(p-fluorophenyl)ethyl]-6,12-diazatricyclo[6.4.0.0^2,^6]dodeca-1(8),9,11-trien-7-one]
18 | – | 22 nM | 412 nM | Cc1nnc(-c2c(CC3COc4cc(F)ccc43)nc3c(c2-c2ccc(C(=O)NCc4ccc(F)c(F)c4)s2)C(=O)N2CCC[C@@H]32)o1 (stereo partly drawn) [Compound 67, 5-[(9aS)-2-[(6-fluoro-2,3-dihydrobenzofuran-3-yl)methyl]-3-(5-methyl-1,3,4-oxadiazol-2-yl)-5-oxo-7,8,9,9a-tetrahydropyrido[2,3-a]pyrrolizin-4-yl]-N-[(3,4-difluorophenyl)methyl]thiophene-2-carboxamide]
19 | – | 0.324 nM | 12.2 nM | CC(C)c1nnc(-c2c(CCC34CCC(CC3)OC4)nc3c(c2-c2ccc4c(c2)oc(=O)n4Cc2ccc(C#N)c(F)c2)c(=O)n2n3CCC2)o1 [Compound 153, 2-fluoro-4-({6-[10-(5-isopropyl-1,3,4-oxadiazol-2-yl)-11-(2-(2-oxabicyclo[2.2.2]oct-4-yl)ethyl}-7-oxo-2,6,12-triazatricyclo[6.4.0.0^2,6]dodeca-1(12),8,10-trien-9-yl]-2-oxo-1,3-benzoxazol-3-yl}methyl)benzonitrile]
